Reference: patent US20170216360A1, “METHODS AND COMPOSITIONS FOR IMPROVING HOMING OF CELLS INCLUDING MESENCHYMAL STEM CELLS” (SANOFI, priority 2014, published 2017)
Structures can show the parent of a compound that is named as a salt. Where two headings read alike, the source gives them in different places. Each block holds one compound with its values, some of them ahead of it.

How the values were obtained:
[1] = test system: CD11a surface expression on huMSCs; experiment: Medium throughput screen: CD11a surface expression on MSCs, PE-CY5 anti-CD11a antibody, laser-scanning fluorescence microplate cytometer; format: cell-based, human; set-up: key to Cell surface ligand CD11a (induction of expression): NA = negative activity result; A = positive activity result; details: for EC50: read-out: Cell Surface Marker ED 50 (M) Molar Concentration of Compound for CD11a Expression
Description: An in vitro screen was performed for compounds that induce surface expression on huMSCs of the marker CD11a (LFA-1). This screen may be considered a medium throughput screen. Certain compounds that induce the increase of this surface marker were then selected for testing in an in vitro firm adhesion assay and/or in vivo systemic administration in an animal model of inflammation. The surface expression screen involved fluorophore-conjugated antibodies to the respective markers. Following pretreatment with the test compounds, samples of cells were incubated with the labeled antibodies for detection of surface marker expression and change relative to a reference level of untreated cells or negative control samples or values. Cells were pretreated with a concentration (3 μM) of each small molecule compound for 24 hours, followed by incubation with a fluorophore-conjugated anti-marker antibody to detect expression on MSC surface. Surface expression levels of marker ligands were then evaluated by laser-scanning fluorescence microplate cytometer. […] Cell viability in response to compounds was also tested to assess whether molecules have toxicity after 24 hours of pretreatment. Testing was performed on two different huMSC sources representing cells from different donors.
Further details of the screening approach are provided as follows. A unique single batch of bone marrow-derived MSC cells was prepared for the entire screening campaign by cell amplification using CellStack flasks and freezing in separate vials at passage P5. […] For each run, vials were thawed and cells directly seeded on 384-well plates at 3,000 cells per well in MSCGM medium. Following an overnight incubation, cells were treated with the indicated concentrations of compounds for 24 hours. Cells were washed in PBS, 3% BSA and incubated for one hour with PE-CY5-conjugated anti-CD11a monoclonal antibody (clone HI111). Expression of CD11a at the cell surface was detected using the Acumen Explorer, a laser-scanning fluorescence microplate cytometer after two PBS washings. HL-60 cells seeded at 10,000 cells per well and treated with 100 nM phorbol 12-myristate 13-acetate (PMA) for 24 h to induce cell adhesion were used as a positive control in each 384-well plate. Positive compounds were counter-screened for their auto-fluorescence by measuring the signal in the absence of antibody.
A single batch of bone marrow-derived MSC was prepared for the entire screening campaign by cell amplification using CellStack flasks and freezing in separate vials at passage P5. […] For each run, vials were thawed and cells directly seeded on 384-well plates at 3,000 cells per well in MSCGM medium. Following an overnight incubation, cells were pretreated with a low (0.1 μM) and high (3 μM) concentration of the compounds for 24 h. 9,000 cpds were tested in 112 assay plates, each 384-well plate contained 320 cpds (from column 5 to 24), one column for Max (Column2, HL60 cells) and one column for Min (Column4, MSC cells). Cells were washed in PBS, 3% BSA and incubated for one hour with PE-CY5-conjugated anti-CD11a monoclonal Ab (BD Biosciences). Expression of CD11a at the cell surface was detected after two PBS washes using the Acumen Explorer equipment, a laser-scanning fluorescence microplate cytometer. HL-60 cells (seeded at 10,000 cells per well and treated with 100 nM phorbol 12-myristate 13-acetate (PMA) for 24 h to induce cell adhesion) were used as a positive control in each 384-well plate. Positive compounds were counter-screened for their auto-fluorescence by measuring the signal in the absence of Ab. Shown in FIG. 4 is the global screening data. Using the Max, Min columns, we have calculated Max/Min ratio generated with CD11a Ab for each assay plate (signal/background ration in green columns was calculated for each of the 112 assay plates). […]

[2] = test system: MSC firm adhesion to ICAM-1-coated surface; experiment: ICAM-1 firm adhesion assay under shear flow, with antibody blocking; format: cell-based, human
Description: Cell adhesion experiments were performed using Bioflux1000 (FluxionBio), allowing accurate control over shear flow. A special 48-well plate was used, in which a microfluidic channel (350 μm×70 μm) connects each pair of adjacent wells (termed inlet and outlet wells). The plate was placed under vacuum and the channels were coated from the inlet with recombinant human E-selectin (5 μg/mL) or ICAM-1 (5 μg/mL) and incubated at 37° C. for 1 h. Prior to introducing the cells into the channel, a wash with PBS−/− from the outlet well was performed for 5 min. Compound-pretreated MSCs were introduced into the channel, followed by attachment period of 2 minutes (no flow applied during the attachment period). Attached cells were then subjected to increasing shear flow, ranging from 0.25 dynes/cm^2 for up to 10 dynes/cm^2. Images were acquired using the Montage software and cell adhesion to the coated channels following subjection to shear flow was examined. See also disclosure elsewhere herein.
Pre-confluent MSCs were incubated for 24 hours with the indicated small molecules (3 μM). MSCs were than detached, washed and incubated for 30 minutes with an antibody reagent. The following antibodies are used: anti-human CD11a (clone: HI111), anti-human CD90 (clone: MAB2067), mouse anti-human CD11a (clone: TS1/22), and mouse IgG1 isotype control. Cells were then introduced into the channel and given 2 minutes to adhere before being subjected to increasing shear flow for a firm adhesion assay on a microfluidic channel coated with E-selectin or ICAM-1.

EC50 ([1]; pretreatment of huMSCs, hydrochloride): 8e-07 M
SMILES: Cn1cc(C2=C(c3c4n(c5ccccc35)CCC(CN)C4)C(=O)NC2=O)c2ccccc21 (stereo not drawn) [Compound 1929, 3-(8-aminomethyl-6,7,8,9-tetrahydro-pyrido[1,2-a]indol-10-yl)-4-(1-methyl-1H-indol-3-yl)-pyrrole-2,5-dione hydrochloride]
CD11a surface expression on MSCs compared to HL-60 cells ([1]; 24 h pretreatment): two-fold higher
CD11a surface expression on MSCs, result in words ([1]; 24 h pretreatment): significant increase
Cell surface ligand CD11a (induction of expression) ([1]; pretreatment of huMSCs): A
CD11a+ part of the induced ICAM-1 adhering population ([2]; 3 μM for 24 h): approximately 7%
Increase in MSC firm adhesion to ICAM-1-coated substrate compared to vehicle-treated MSCs ([2]; 3 μM for 24 h): > 3 fold
New MSC sub-population with induced ICAM-1 firm adhesion, share of entire population ([2]; 3 μM for 24 h): 68%
Part expressing other ICAM-1-binding domains ([2]; 3 μM for 24 h): 61%
Adhered cells on ICAM-1-coated surface before CD11a blocking ([2]; pretreated MSC): 90%
Adhered cells on ICAM-1-coated surface following CD11a blocking ([2]; pretreated MSC, CD11a blocking Ab): 50%

EC50 ([1]; Homo sapiens, pretreatment of huMSCs): > 3e-05 M
SMILES: CCc1c2c(nc3ccc(OC(=O)N4CCC(N5CCCCC5)CC4)cc13)-c1cc3c(c(=O)n1C2)COC(=O)[C@]3(O)CC [Compound 1927, reference compound]
CD11a surface expression on MSCs, result in words ([1]; 24 h pretreatment): did not increase
